Measured values published in US20140039044A1, “Hydroxylated Polymethoxyflavone Compositions” (WLLGEN, INC., priority 2006, published 2014).
Where two headings read alike, the source gives them in different places.

Legend:
Type in all cases: cell-based, human
[1] = test system: MCF-7 breast cancer cells; test: Cell growth inhibition (cell number, total nucleic acid content); details: for IC50: MCF-7 cells, average of the day 3 and day 6 determinations, read-out: Inhibition of cell proliferation (IC50); for Inhibition of proliferation, in words: MCF-7 cells, 1, 3 or 6 days, FIG. 7
Experimental: Human colon carcinoma COLO205 and HT-29 cell lines (American Type Culture Collection (ATTC), Manassas, Va.) and the leukemia cell line HL-60 were maintained at 37° C. in 5% CO2 air in RPMI 1640 medium supplemented with 10% heat-inactivated fetal bovine serum (Gibco BRL, Grand Island, N.Y.), 100 units/mL penicillin, 100 μg/mL streptomycin and 2 mM 1-glutamine. The human gastric carcinoma AGS cell line (CCRC 60102), obtained from the Food Industry Research and Development Institute (Hsinchu, Taiwan), was maintained as described above, except that DMEM/F 12 was used as the medium rather than the RPMI 1640 medium. The human breast carcinoma MCF-7 cell line MCF-7 (ATTC) was cultured in RPMI 1640 medium supplemented with 5% fetal calf serum at 37° C. in a humidified atmosphere of 5% CO2 in air. The mouse macrophage cell line RAW 264.7 was maintained in RPMI 1640 supplemented with 100 U/ml penicillin, 100 μg/ml streptomycin, and 10% heat-inactivated fetal calf serum.
Cancer cells (2×10^5) were plated in 12-well Petri dishes. The next day, the medium was changed and treated with different concentration of the test compounds or compositions for 24 h. Where individual compounds were to be tested, stock solutions of the compound was prepared to contain 200 μM of the individual hydroxylated or non-hydroxylated PMF in dimethylsulfoxide (DMSO). Control cells were treated with DMSO to a final concentration of 0.05% (v/v). Depending on the objective of the particular experiment, cells were treating with test compound or composition for 1, 3 or 6 days. At the end of incubation, cells were harvested for cell count using a hemocytometer and measuring the cellular total nucleic acid content with the CyQUANT Cell Proliferation Assay Kit (Molecular Probes).
FIG. 7 presents cell number data, where cell numbers of cells treated to PMFs are presented as a percentage of control cells. The IC50 values for inhibition of cell proliferation are presented in Table 15 in which the concentration inhibiting cell growth by 50%, IC50, is presented as the average of the day 3 and day 6 determinations. The apparent minimal effective concentrations, ECmin, for induction of cell death, apoptosis, and increase in [Ca^2+]i are also indicated.

[2] = test system: MCF-7 breast cancer cells; test: Apoptosis assay (Annexin V, Hoechst 33342); details: MCF-7 cells; for Apoptosis by morphological criteria (nuclear fragmentation): Hoechst 33342
Experimental: (§1) MCF-7 cells were maintained and assayed as described in Section 8.4 above. Apoptosis was evaluated by the plasma membrane and nuclear changes as previously described in Sergeev (2004) J. Steroid Biochem. Mol. Biol. 89-90:419-425. Briefly, An Annexin V assay (ALEXA FLUOR 488 Annexin V Assay Kit; Molecular Probes) was used for detection of the apoptotic plasma membrane (loss of membrane asymmetry due to phosphatidylserine translocation). Fluorescence (485 nm excitation, 530 nm emission) of the Annexin V-abeled cells grown in 96-well plates was measured in the FLx800 plate reader with KC software (BioTek) and expressed in fluorescence units per 1×10^3 cells. Propidium iodide uptake was used to evaluate non-apoptotic and apoptotic cell death (the dye permeates plasma membrane and stain nucleic acids of both necrotic and the late apoptotic cells). Fluorescence (530 nm excitation, 620 nm emission) of the propidium iodide-labeled cells was also measured in the FLx800 reader. Additionally, HOECHST 33342 and ALEXA FLUOR 488 Annexin V were employed to visualize apoptotic nuclei (nuclear fragmentation) and the apoptotic plasma membrane, respectively. Fluorescence microscopy of HOECHST 33342- and Annexin V-labeled cells was performed as described below for the cellular Ca^2+ and immunofluorescence imaging.

[3] = test system: MCF-7 breast cancer cells; test: Cell death by propidium iodide uptake; details: MCF-7 cells; for Cell death (propidium iodide), in words: evident at day 6, FIG. 9
Experimental: as §1

[4] = test system: Ca^2+ influx in MCF-7 cells; test: Ca2+ influx (Mn2+ entry rate, fura-2 quench); details: for Increase of Ca^2+ influx (Ca^2+ entry rates): compound 4: 6.25 μM, compound 5: 12.5 μM; for Ca^2+ influx, in words: 25 μM
Experimental: To evaluate Ca^2+ influx from the extracellular space, the Mn^2+ entry rate, as a reporter of Ca^2+ influx, was measured. The images were recorded at excitation of 360 nm (the fura-2 isosbestic point) and 2 mM of extracellular Mn^2+. The rates of Ca^2+ entry were estimated from the slope of the liner portion of curves of the fura-2 fluorescence quench by Mn^2+. To evaluate Ca^2+ release from the intracellular stores, cells grown on coverslips were placed in D-PBS, and the mobilizer of the endoplasmic reticulum Ca^2+-stores, thapsigargin (1 μM), was added after recording the basal [Ca^2+]i. The peak values of the [Ca^2+]i increase, indicating the filling level of the Ca^2+-stores, were measured with fura-2.
To investigate mechanism of a sustained increase in [Ca^2+]i after treatment with PMFs, the rates of the background Ca^2+ influx from the extracellular space and the magnitudes of Ca^2+ release from the endoplasmic reticulum stores with thapsigargin were measured in the treated cells using methods described above.
In FIG. 11A through 11D, the concentration for each PMF was as follows: compound 4: 6.25 μM; compound 5: 12.5 μM; compound 6: 25 μM; and compound 7: 25 μM. […] The Ca^2+ entry rates (C, D) are presented as tangents of the linear portions of the fura-2 quench curves. Data in panel C are presented as means±SE for control cells or cells treated with PMFs 3 days (black bars) or 6 days (gray bars). […] Mn^2+ or thapsigargin was added after recording the basal level of fluorescence or basal [Ca^2+]i for 30-60 s.

[5] = day 3 and 6 of treatment, dose-dependent

SMILES | IC50 ([1]; Homo sapiens, MCF7) [µM] | Inhibition of proliferation, in words [1] | Induction of cell apoptosis (ECmin, apparent minimal effective concentration) [2] [µM] | Apoptosis by morphological criteria (nuclear fragmentation) [2] | Induction of apoptosis (Annexin V), in words [2, 5] | Induction of cell death (ECmin, apparent minimal effective concentration) [3] [µM] | Cell death (propidium iodide), in words [3] | Increase of Ca^2+ influx (Ca^2+ entry rates) [4] [fold] | Induction of apoptosis (Annexin V), in words ([2]; 50-100 μM, day 6 of treatment) | Ca^2+ influx, in words [4] | IC50 [1] [µM] | Proapoptotic activity (Annexin V), in words ([2]; 25-100 μM, day 6 of treatment)
COc1ccc(-c2cc(=O)c3c(OC)c(OC)c(OC)cc3o2)cc1O [Compound 5, 3′-hydroxy-5,6,7,4′-tetramethoxyflavone] | 10.5 | inhibited proliferation of MCF-7 breast cancer cells in a dose- and time-dependent fashion | 3.125 | confirmed apoptosis | induced apoptosis | 6.25 | induced death of MCF-7 breast cancer cells | 1.6 |  |  |  | 
COc1ccc(-c2cc(=O)c3c(OC)c(OC)c(OC)cc3o2)cc1OC [Compound 7, 5,6,7,3′,4′-pentamethoxyflavone, reference compound] | > 50 | inhibited proliferation of MCF-7 breast cancer cells in a dose- and time-dependent fashion | >50 |  |  | >50 | not effective in inducing non-apoptotic cell death |  | only a trend in inducing apoptosis | did not significantly increase Ca^2+ influx |  | 
COc1ccc(-c2oc3c(OC)c(OC)c(OC)c(O)c3c(=O)c2OC)cc1OC [Compound C, 5-hydroxy-3,6,7,8,3′,4′-hexamethoxyflavone] | 2.5 | inhibited proliferation of MCF-7 breast cancer cells in a dose- and time-dependent fashion | 1.56 | confirmed apoptosis | induced apoptosis | 3.125 | induced death of MCF-7 breast cancer cells | 1.8 |  |  |  | 
COc1ccc(-c2oc3c(OC)c(OC)c(OC)c(OC)c3c(=O)c2OC)cc1OC [D, 3,5,6,7,8,3,4-heptamethoxyflavone, reference compound] |  | inhibited proliferation of MCF-7 breast cancer cells in a dose- and time-dependent fashion | >50 | confirmed apoptosis |  | >50 | not effective in inducing non-apoptotic cell death |  |  | did not significantly increase Ca^2+ influx | > 50 | low proapototic activity
